Entries after “also recorded” stand apart in the source; their conditions may differ.
What was measured:
primary FSPC = test: Edu assay of cell proliferation of primary FSPC after iMDK treatment; format: cell-based, human; details: iMDK 100 nM, DDH group FSPC in vitro, compared with the DDH group
Procedure: (§1) The samples from the DDH group were divided into two portions, one of which was treated with iMDK in vitro (DDH cell samples were added with iMDK, where the iMDK was 100 nM), and the specific dosages and treatments were not restricted by reference to commonly used inhibitor treatments or mixed cultures, etc. Cells in the control group and DDH group were cultured in the same way (the difference is no iMDK treatment). Post-treatment samples were examined for the expression levels of NR3C1 and MDK and cell proliferation of primary FSPC from different groups after treatment with the MDK inhibitor (IMDK), using Western blot and the Edu assay, etc., and the results were shown in FIGS. 3E-3F. As shown in FIGS. 3E-3F, compared with the DDH group, the expression levels of NR3C1 and MDK were reduced and the cell proliferation was reduced in the control group. Compared with the DDH group, the expression levels of NR3C1 and MDK were reduced in iMDK-treated FSPC, and cell proliferation capacity was reduced.

[1] = system: NR3C1 and MDK expression in primary FSPC; test: Western blot of NR3C1 and MDK expression in primary FSPC after iMDK treatment; format: cell-based, human; details: iMDK 100 nM, DDH group FSPC in vitro, compared with the DDH group
Procedure: as §1

DDH rat model = test: DDH rat model, iMDK injected into the hip joints (Micro CT, HE and safranin O-solid green staining, immunohistochemistry); format: in vivo, Wistar rats; details: 5 mg/kg body weight into hip joints for 7 days
Procedure: In some embodiments, a DDH rat model is established to illustrate the results of the present disclosure. The manner of establishing the DDH rat model is as follows.
Fifteen neonatal rodents (e.g., Wistar rats, etc.) were divided into the control group, DDH group, and iMDK group. The DDH rat model was prepared by fixing the hind limbs of rats in the DDH group and the iMDK group using medical adhesive tape, etc., and keeping the hip joints internally retracted or post-extended for 10 days. […] Neonatal rats were fed by their mothers and had normal growth, development, and nutritional status. Rats in the DDH group and the iMDK group were de-taped for 30 min daily.
After 10 days, iMDK (e.g., HY-110171, etc.) was injected into the hip joints of rats in the iMDK group at a dosage of 5 mg/kg body weight for 7 days. Rats in the DDH group and control group were injected with equal volumes of saline.
It can be seen from FIG. 4 that compared with the control group, the acetabulum of the rats in the DDH group became shallow and the hip joints were dislocated.
In some embodiments, hip specimens were stained with HE (hematoxylin-eosin staining) and safranin O-solid green SO, and the results are shown in FIGS. 5A-5B. As shown in FIGS. 5A-5B, the acetabular labrum was thickened and the articular structure was disorganized in the DDH group. The iMDK group inhibited abnormal manifestations within the joint such as thickening of the acetabular labrum and joint structure disorders.

[2] = hip specimens, rank among DDH, DDH+iMDK and control groups

## O=c1oc2ccccc2cc1-c1cn2cc(Cc3ccc(F)cc3)sc2n1 [iMDK]
Primary FSPC
  cell proliferation capacity: reduced
[1]
  expression level of MDK: reduced
  expression level of NR3C1: reduced
DDH rat model; hip specimens
  abnormal manifestations within the joint such as thickening of the acetabular labrum and joint structure disorders (HE, safranin O-solid green staining): inhibited; also recorded: inhibits the thickening of the acetabular labrum
DDH rat model; [2]
  expression level of Ki67 (immunohistochemistry): highest in the DDH group, followed by the DDH+iMDK group
  expression level of NR3C1 (immunohistochemistry): highest in the DDH group, followed by the DDH+iMDK group
DDH rat model; specimens 24 days after end of treatment
  hip dislocation (Micro CT): significant improvement
